In patent publication US7772241B2, “Variolin derivatives and their use as antitumor agents” (Pharma Mar S.A., priority 2001, dated 2010):
Like-named read-outs stand apart in the source and are kept apart here.

Columns and labels:
[1] = tested on: A-549; experiment: Inhibition of cells growth by colorimetric (SRB) assay, A-549
Summary of the method: (§1)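 Human tumour cells in RPMI 1640 with 10% FBS were seeded at 5×10^3 cells/well, allowed to attach for 18 h, then exposed to samples at 10 to 10^−8 μg/ml for 48 h. Growth was measured by SRB staining after TCA fixation, with absorbance read at 490 nm in triplicate wells.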

[2] = tested on: HT-29; experiment: Inhibition of cells growth by colorimetric (SRB) assay, HT-29
Summary of the method: as §1

[3] = Inhibition of cells growth by colorimetric (SRB) assay, HMEC1; conditions: human, HMEC1 cells, 48 hours exposure
Source text: (§2) The finality of these assays is to interrupt the growth of a “in vitro” tumor cell culture by means a continued exhibition of the cells to the sample to be testing.
(§3) This form of the assay employs 96 well cell culture microplates of 9 mm diameter (Faircloth, 1988; Mosmann, 1983). Most of the cell lines are obtained from American Type Culture Collection (ATCC) derived from different human cancer types.
(§4) Cells are maintained in RPMI 1640 10% FBS, supplemented with 0.1 g/l penicillin and 0.1 g/l streptomycin sulphate and then incubated at 37° C., 5% CO2 and 98% humidity. For the experiments, cells were harvested from subconfluent cultures using trypsin and resuspended in fresh medium before plating.
(§5) Cells are seeded in 96 well microtiter plates, at 5×10^3 cells per well in aliquots of 195 μl medium, and they are allowed to attach to the plate surface by growing in drug free medium for 18 hours. Afterward, samples are added in aliquots of 5 μl in a ranging from 10 to 10^−8 μg/ml, dissolved in DMSO/EtOH/PBS (0.5:0.5:99). After 48 hours exposure, the antitumor effect are measured by the SRB methodology: cells are fixed by adding 50 μl of cold 50% (wt/vol) trichloroacetic acid (TCA) and incubating for 60 minutes at 4° C. Plates are washed with deionized water and dried. One hundred μl of SRB solution (0.4% wt/vol in 1% acetic acid) is added to each microtiter well and incubated for 10 minutes at room temperature. Unbound SRB is removed by washing with 1% acetic acid. Plates are air dried and bound stain is solubilized with Tris buffer. Optical densities are read on a automated spectrophotometric plate reader at a single wavelength of 490 nm.
(§6) The values for mean +/−SD of data from triplicate wells are calculated. Some parameters for cellular responses can be calculated: GI=growth inhibition, TGI=total growth inhibition (cytostatic effect) and LC=cell killing (cytotoxic effect).

[4] = tested on: HMEC1; experiment: as above; conditions: for H-MEC-1 TGI / TGI H-MEC-1: in M (unit assumed)
Source text: as §2, §3, §4, §5, §6

[5] = tested on: K-562; experiment: Inhibition of cells growth by colorimetric (SRB) assay, K-562; conditions: SRB assay, 48 hours exposure
Summary of the method: as §1

[6] = tested on: SK-MEL-28; experiment: Inhibition of cells growth by colorimetric (SRB) assay, SK-MEL-28; conditions: SRB assay, 48 hours exposure
Summary of the method: as §1

[7] = tested on: LoVo; experiment: Inhibition of cells growth by colorimetric (SRB) assay, LoVo; conditions: SRB assay, 48 hours exposure
Summary of the method: as §1

[8] = tested on: LoVo-Dox; experiment: Inhibition of cells growth by colorimetric (SRB) assay, LoVo-Dox; conditions: SRB assay, 48 hours exposure
Summary of the method: as §1

[9] = tested on: DU-145; experiment: Inhibition of cells growth by colorimetric (SRB) assay, DU-145; conditions: SRB assay, 48 hours exposure
Summary of the method: as §1

[10] = tested on: LNCaP; experiment: Inhibition of cells growth by colorimetric (SRB) assay, LNCaP
Summary of the method: as §1

[11] = tested on: SK-BR-3; experiment: Inhibition of cells growth by colorimetric (SRB) assay, SK-BR-3; conditions: SRB assay, 48 hours exposure
Summary of the method: as §1

[12] = tested on: IGROV-1; experiment: Inhibition of cells growth by colorimetric (SRB) assay, IGROV-1; conditions: SRB assay, 48 hours exposure
Summary of the method: as §1

[13] = tested on: IGROV-ET; experiment: Inhibition of cells growth by colorimetric (SRB) assay, IGROV-ET; conditions: SRB assay, 48 hours exposure
Summary of the method: as §1

[14] = tested on: SK-OV-3; experiment: Inhibition of cells growth by colorimetric (SRB) assay, SK-OV-3
Summary of the method: as §1

[15] = tested on: PANC-1; experiment: Inhibition of cells growth by colorimetric (SRB) assay, PANC-1; conditions: SRB assay, 48 hours exposure
Summary of the method: as §1

[16] = Homo sapiens, A549, 48 h, read-out: A-549 GI50, SRB assay, 48 hours exposure
[17] = Homo sapiens, A549, 48 h, read-out: A-549 LC50, SRB assay, 48 hours exposure
[18] = Homo sapiens, HT-29, 48 h, read-out: HT-29 GI50, SRB assay, 48 hours exposure
[19] = Homo sapiens, HT-29, 48 h, read-out: HT-29 LC50, SRB assay, 48 hours exposure
[20] = Homo sapiens, HMEC-1, 48 h, read-out: H-MEC-1 GI50, SRB assay, 48 hours exposure
[21] = Homo sapiens, A549, 48 h, read-out: GI50 A-549, SRB assay, 48 hours exposure
[22] = Homo sapiens, A549, 48 h, read-out: LC50 A-549, SRB assay, 48 hours exposure
[23] = Homo sapiens, HT-29, 48 h, read-out: GI50 HT-29, SRB assay, 48 hours exposure
[24] = Homo sapiens, HT-29, 48 h, read-out: LC50 HT-29, SRB assay, 48 hours exposure
[25] = Homo sapiens, HMEC-1, 48 h, read-out: GI50 H-MEC-1, SRB assay, 48 hours exposure

Nc1nccc2c(-c3ccncn3)c3cccnc3n12 [Compound 70]
GI50 [1, 16]: 0.182 µM | CC50 [1, 17]: 3.35 µM | A-549 TGI ([1]; SRB assay, 48 hours exposure): 5.60E−07 | GI50 [2, 18]: 0.0381 µM | CC50 [2, 19]: 38.1 µM | HT-29 TGI ([2]; SRB assay, 48 hours exposure): 3.81E−06 | CC50 at 48 h ([3]; H-MEC-1 LC50, SRB assay): 4 µM | GI50 [4, 20]: 119 nM | H-MEC-1 TGI ([4]; SRB assay, 48 hours exposure): 3.93E−07

Cc1nccc(-c2c3cccnc3n3c(N)nccc23)n1 [Compound 75]
GI50 [1, 16]: 4.2 µM | CC50 [1, 17]: 21.3 µM | A-549 TGI ([1]; SRB assay, 48 hours exposure): 9.45E−06 | GI50 [2, 18]: 5.79 µM | CC50 [2, 19]: 36.2 µM | HT-29 TGI ([2]; SRB assay, 48 hours exposure): 3.62E−05 | CC50 at 48 h ([3]; H-MEC-1 LC50, SRB assay): 36.2 µM | GI50 [4, 20]: 1430 nM | H-MEC-1 TGI ([4]; SRB assay, 48 hours exposure): 8.00E−06

CCOc1nccc(-c2c3cccnc3n3c(N)nccc23)n1 [Compound 77]
TGI K-562 [5]: 3.26E−05 | GI50 ([5]; read-out: GI50 K-562): 1210 nM | CC50 ([5]; read-out: LC50 K-562): ≥ 32.6 µM | TGI A-549 ([1]; SRB assay, 48 hours exposure): 3.26E−05 | GI50 ([1]; read-out: GI50 A-549, SRB assay, 48 hours exposure): ≥ 32.6 µM | CC50 ([1]; read-out: LC50 A-549, SRB assay, 48 hours exposure): > 32.6 µM | TGI MEL-28 [6]: 9.24E−07 | GI50 ([6]; read-out: GI50 MEL-28): 398 nM | CC50 ([6]; read-out: LC50 MEL-28): 2160 nM | TGI HT-29 ([2]; SRB assay, 48 hours exposure): 3.26E−06 | GI50 ([2]; read-out: GI50 HT-29, SRB assay, 48 hours exposure): 0.829 µM | CC50 ([2]; read-out: LC50 HT-29, SRB assay, 48 hours exposure): 3.26 µM | TGI LOVO [7]: 2.02E−06 | GI50 ([7]; read-out: GI50 LOVO): 629 nM | CC50 ([7]; read-out: LC50 LOVO): ≥ 32.6 µM | TGI LOVO-DOX [8]: 2.79E−06 | GI50 ([8]; read-out: GI50 LOVO-DOX): 702 nM | CC50 ([8]; read-out: LC50 LOVO-DOX): 15.1 µM | TGI DU-145 [9]: 1.68E−06 | GI50 ([9]; read-out: GI50 DU-145): 630 nM | CC50 ([9]; read-out: LC50 DU-145): 27.8 µM | GI50 ([10]; Homo sapiens, LNCaP, 48 h, read-out: GI50 LN-caP, SRB assay, 48 hours exposure): 617 nM | CC50 ([10]; Homo sapiens, LNCaP, 48 h, read-out: LC50 LN-caP, SRB assay, 48 hours exposure): 2960 nM | TGI LN-caP ([10]; SRB assay, 48 hours exposure): 1.35E−06 | TGI SK-BR-3 [11]: 1.34E−06 | GI50 ([11]; read-out: GI50 SK-BR-3): 643 nM | CC50 ([11]; read-out: LC50 SK-BR-3): 2790 nM | TGI IGROV [12]: 2.74E−06 | GI50 ([12]; read-out: GI50 IGROV): 1300 nM | CC50 ([12]; read-out: LC50 IGROV): ≥ 32.6 µM | TGI IGROV-ET [13]: 1.61E−06 | GI50 ([13]; read-out: GI50 IGROV-ET): 555 nM | CC50 ([13]; read-out: LC50 IGROV-ET): ≥ 32.6 µM | GI50 ([14]; Homo sapiens, SK-OV-3, 48 h, read-out: GI50 SKOV-3, SRB assay, 48 hours exposure): 1300 nM | TGI SKOV-3 ([14]; SRB assay, 48 hours exposure): 3.26E−06 | CC50 ([14]; read-out: LC50 SKOV-3, SRB assay, 48 hours exposure): 3.26 µM | TGI PANC-1 [15]: 7.80E−06 | GI50 ([15]; read-out: GI50 PANC-1): 1160 nM | CC50 ([15]; read-out: LC50 PANC-1): ≥ 32.6 µM | TGI H-MEC-1 ([4]; SRB assay, 48 hours exposure): 3.21E−07 | GI50 ([4]; read-out: GI50 H-MEC-1, SRB assay, 48 hours exposure): 206 nM | CC50 ([4]; read-out: LC50 H-MEC-1, SRB assay, 48 hours exposure): 1260 nM

CSc1nccc(-c2c3c(Cl)ccnc3n3c(SC)nccc23)n1 [Compound 84]
GI50 [1, 21]: 26.7 µM | CC50 [1, 22]: 26.7 µM | TGI A-549 ([1]; SRB assay, 48 hours exposure): 2.67E−05 | GI50 [2, 23]: 26.7 µM | CC50 [2, 24]: 26.7 µM | TGI HT-29 ([2]; SRB assay, 48 hours exposure): 2.67E−05 | CC50 at 48 h ([3]; LC50 H-MEC-1, SRB assay): 26.7 µM | GI50 [4, 25]: 26700 nM | TGI H-MEC-1 ([4]; SRB assay, 48 hours exposure): 2.67E−05

COc1ccc(CNc2ccnc3c2c(-c2ccnc(SC)n2)c2ccnc(NCc4ccc(OC)cc4)n23)cc1 [Compound 85]
GI50 [1, 21]: 6.58 µM | CC50 [1, 22]: 17.7 µM | TGI A-549 ([1]; SRB assay, 48 hours exposure): 1.77E−05 | GI50 [2, 23]: 12.2 µM | CC50 [2, 24]: 17.7 µM | TGI HT-29 ([2]; SRB assay, 48 hours exposure): 1.77E−05 | CC50 at 48 h ([3]; LC50 H-MEC-1, SRB assay): 17.7 µM | GI50 [4, 25]: 6190 nM | TGI H-MEC-1 ([4]; SRB assay, 48 hours exposure): 1.77E−05

CSc1nccc(-c2c3c(N)ccnc3n3c(N)nccc23)n1 [Compound 92]
GI50 [1, 21]: 1.76 µM | CC50 [1, 22]: 24.4 µM | TGI A-549 ([1]; SRB assay, 48 hours exposure): 6.03E−06 | GI50 [2, 23]: 2.04 µM | CC50 [2, 24]: 30.9 µM | TGI HT-29 ([2]; SRB assay, 48 hours exposure): 3.09E−05 | CC50 at 48 h ([3]; LC50 H-MEC-1, SRB assay): 30.9 µM | GI50 [4, 25]: 782 nM | TGI H-MEC-1 ([4]; SRB assay, 48 hours exposure): 3.09E−06

CSc1nccc(-c2c3c(OCc4ccccc4)ccnc3n3c(N)nccc23)n1 [Compound 94]
GI50 [1, 21]: 24.1 µM | CC50 [1, 22]: 24.1 µM | TGI A-549 ([1]; SRB assay, 48 hours exposure): 2.41E−05 | GI50 [2, 23]: 24.1 µM | CC50 [2, 24]: 24.1 µM | TGI HT-29 ([2]; SRB assay, 48 hours exposure): 2.41E−05 | CC50 at 48 h ([3]; LC50 H-MEC-1, SRB assay): 24.1 µM | GI50 [4, 25]: 9190 nM | TGI H-MEC-1 ([4]; SRB assay, 48 hours exposure): 1.97E−05
